Format in all cases: in vivo
For assay [1], the system named is Green peach aphid (Myzus persicae). Put plainly: Activity against green peach aphid through systemic means, artificial diet in 96-well microtiter plates. The conditions noted are these: 72 h, read-out: mortality in comparison with untreated controls. An excerpt: II.6 Activity Against Green Peach Aphid (Myzus persicae)
For evaluating control of green peach aphid (Myzus persicae) through systemic means the test unit consisted of 96-well-microtiter plates containing liquid artificial diet under an artificial membrane.
The compounds were formulated using a solution containing 75% v/v water and 25% v/v DMSO. Different concentrations of formulated compounds were pipetted into the aphid diet, using a custom built pipetter, at two replications. After application, 5 to 8 adult aphids were placed on the artificial membrane inside the microtiter plate wells. The aphids were then allowed to suck on the treated aphid diet and incubated at about 23+1° C. and about 50+5% relative humidity for 3 days. Aphid mortality and fecundity was then visually assessed.

Assay [2] deals with Vanda/Orchid thrips (Dichromothrips corbetti). In words: Activity against Vanda/orchid thrips, petal dip. The conditions noted are these: orchid petals dipped, recorded after 72 hours, read-out: mortality in comparison with untreated controls. As for the experimental part: II.7 Activity Against Vanda/Orchid Thrips (Dichromothrips corbetti)
The active compounds were formulated as a 50:50 (vol:vol) acetone:water solution. Surfactant (Alkamuls EL 620) was added at the rate of 0.1% (vol/vol). Vanda orchids petals were cleaned, washed and air dried prior to spraying. Petals were dipped into the test solution for 3 seconds, air dried, placed inside a resealable plastic and inoculated with 20 adults. The treated petals were kept inside the holding room at 28-29° C. and relative humidity of 50-60%. Percent mortality was recorded after 72 hours.

For assay [3], the system named is Silverleaf whitefly (bemisia argentifolii, adult). In words: Activity against silverleaf whitefly, sprayed cotton plants. The settings on record: 72 h, whitefly adults, assessed 3 days after treatment, read-out: mortality in comparison with untreated controls. As for the experimental part:
II.4 Activity Against Silverleaf Whitefly (bemisia argentifolii, Adult)
(§1) The active compounds were formulated in cyclohexanone as a 10,0000 ppm solution supplied in 1.3 ml ABgene® tubes. These tubes were inserted into an automated electrostatic sprayer equipped with an atomizing nozzle and they served as stock solutions for which lower dilutions were made in 50% acetone:50% water (v/v). A nonionic surfactant (Kinetic®) was included in the solution at a volume of 0.01% (v/v).
Cotton plants at the cotyledon stage (one plant per pot) were sprayed by an automated electrostatic plant sprayer equipped with an atomizing spray nozzle. The plants were dried in the sprayer fume hood and then removed from the sprayer. Each pot was placed into a plastic cup and 10 to 12 whitefly adults (approximately 3-5 days old) were introduced. The insects were collected using an aspirator and 0.6 cm, nontoxic Tygon® tubing (R-3603) connected to a barrier pipette tip. The tip, containing the collected insects, was then gently inserted into the soil containing the treated plant, allowing insects to crawl out of the tip to reach the foliage for feeding. Cups were covered with a reusable screened lid (150-micron mesh polyester screen PeCap from Tetko, Inc.). […] Mortality was assessed 3 days after treatment, compared to untreated control plants.

In assay [4] the test system is Cotton aphids (Aphis gossypii). In words: Hydroponic test against cotton aphids, bare-root cotton plants. The settings on record: bare roots immersed 24 hours, assay 3 days, read-out: mortality in comparison with untreated controls. On the procedure:
II.8 Activity in the Hydroponic Tests against Cotton Aphids (Aphis gossypii)
Cotton plants (Gossypium hirsutum, variety ‘Sure Grow 747’) are grown in the greenhouse from seed to the second true leaf stage (BBCH 12) in Scott's Metro-Mix® 360 (1-2 plants per 2¼″ square pot). Cotyledon leaves are removed and roots are rinsed in tap water until free of soil. The roots are kept moist under a layer of wet paper toweling until all plants have been prepared.
(§2) A 3,400 ppm stock solution is prepared of each test compound using reagent grade acetone as the solvent. Subsequent dilutions of 100 and 10 ppm are prepared from this stock with final dilutions in deionized water in 100 ml amber glass bottles. One bare root plant is placed in each bottle using a foam plug section to centrally secure the stem in the bottleneck. The bare roots are fully-immersed in the test suspensions. Host plants are placed in a plant growth room under continuous GroLux® fluorescent lighting (40W), for 24 hours at 25±2° C. and 20-40% RH.
After exposure of the bare roots to the test suspensions, pieces of cotton plants infested with cotton aphids (Aphis gossypii) are placed on top of the test foliage. Insects are allowed to transfer from the host leaves to accomplish an infestation of 40-50 insects per plant. […] Phytotoxic responses of the host plants are also recorded at this time.

For assay [5], the system named is Vetch aphid (Megoura viciae). Put plainly: Activity against vetch aphid, bean leaf disks in microtiterplates. The conditions noted are these: foliar, 144 h, test solution 2500 mg/L, 2.5 μl sprayed on bean leaf disks, 6 days. On the procedure:
II.5 Activity Against Vetch Aphid (Megoura viciae)
The active compounds were formulated in 1:3 (vol:vol) DMSO: water with different concentrations of formulated compounds.
Bean leaf disks were placed into microtiterplates filled with 0.8% agar-agar and 2.5 ppm OPUS™. The leaf disks were sprayed with 2.5 μl of the test solution and 5 to 8 adult aphids were placed into the microtiterplates which were then closed and kept at 23±1° C. and 50±5% relative humidity under fluorescent light for 6 days. Mortality was assessed on the basis of vital, reproduced aphids. Aphid mortality and fecundity was then visually assessed.

Assay [6] concerns Cowpea aphid (Aphis craccivora). In words: Activity against cowpea aphid, spray on potted cowpea plants. The conditions noted are these: spray on colonized cowpea plants, population reduction assessed after 24, 72 and 120 hours, read-out: mortality in comparison with untreated controls. On the procedure: II.3 Activity Against Cowpea Aphid (Aphis craccivora)
The active compounds were formulated in 50:50 (vol:vol) acetone:water. The test solution was prepared at the day of use.
Potted cowpea plants colonized with 100-150 aphids of various stages were sprayed after the pest population had been recorded. Population reduction was assesed after 24, 72, and 120 hours.

The subject of assay [7] is Cotton aphid (Aphis gossypii, mixed life stages). Put plainly: Activity against cotton aphid, foliar spray on infested cotton plants. The conditions noted are these: 120 h, determined after 5 days, read-out: mortality in comparison with untreated controls. As for the experimental part: II.1 Activity Against Cotton Aphid (Aphis gossypii, Mixed Life Stages)
as §1
Cotton plants at the cotyledon stage were infested with aphids prior to treatment by placing a heavily infested leaf from the main aphid colony on top of each cotyledon. Aphids were allowed to transfer overnight to accomplish an infestation of 80-100 aphids per plant and the host leaf was removed. The infested plants were then sprayed by an automated electrostatic plant sprayer equipped with an atomizing spray nozzle. The plants were dried in the sprayer fume hood, removed from the sprayer, and then maintained in a growth room under fluorescent lighting in a 24-hr photoperiod at 25° C. and 20-40% relative humidity. Aphid mortality on the treated plants, relative to mortality on untreated control plants, was determined after 5 days.

The test system of assay [8] is Green peach aphids (Myzus persicae). Put plainly: Hydroponic test against green peach aphids, bare-root green pepper plants. The settings on record: bare roots immersed 24 hours, assay 3 days, read-out: mortality in comparison with untreated controls. On the procedure:
II.7.1 Activity in the Hydroponic Tests Against Green Peach Aphids (Myzus persicae)
Green pepper plants (Capsicum annuum L., variety ‘California Wonder’) are grown in the greenhouse from seed to the second true leaf stage (BBCH 12) in Scott's MetroMix® 360 (1-2 plants per 2¼″ square pot). Cotyledon leaves are removed and roots are rinsed in tap water until free of soil. The roots are kept moist under a layer of wet paper toweling until all plants have been prepared.
as §2
After exposure of the bare roots to the test suspensions, pieces of pepper plants infested with green peach aphid (Myzus persicae) are placed on top of the test foliage. Insects are allowed to transfer from the host leaves to accomplish an infestation of 40-50 insects per plant. […] Phytotoxic responses of the host plants are also recorded at this time.

Assay [9] deals with Green peach aphid (Myzus persicae, mixed life stages). In words: Activity against green peach aphid, foliar spray on infested bell pepper plants. The settings on record: 120 h, determined after 5 days, read-out: mortality in comparison with untreated controls. On the procedure: II.2 Activity Against Green Peach Aphid (Myzus persicae, Mixed Life Stages)
as §1
Bell pepper plants at the first true-leaf stage were infested prior to treatment by placing heavily infested leaves from the main colony on top of the treatment plants. Aphids were allowed to transfer overnight to accomplish an infestation of 30-50 aphids per plant and the host leaves were removed. The infested plants were then sprayed by an automated electrostatic plant sprayer equipped with an atomizing spray nozzle. The plants were dried in the sprayer fume hood, removed, and then maintained in a growth room under fluorescent lighting in a 24-hr photoperiod at 25° C. and 20-40% relative humidity. Aphid mortality on the treated plants, relative to mortality on untreated control plants, was determined after 5 days.

A value given as a limit tells only on which side of the number the result lay.

For the molecule `O=C(Nc1ccnnc1)c1conc1C1CC1` [Compound 4, 3-Cyclopropyl-isoxazole-4-carboxylic acid pyridazin-4-ylamide], the mortality at 2500 ppm in assay [1] turned out to be 100%. The mortality at 500 ppm in assay [2] is at least 50%. The mortality at 300 ppm in [3] is at least 75%; in assay [6], at least 90%; in assay [7], at least 75%; in [9], at least 75%. In addition, the mortality at 100 ppm in assay [4] and in [8] was at least 75% throughout. Besides, in assay [5], the mortality at 2500 µg/mL is at least 90%.
For `CN(C(=O)c1conc1C1CC1)c1ccnnc1` [Compound 5, 3-Cyclopropyl-isoxazole-4-carboxylic acid methyl-pyridazin-4-yl-amide], the mortality at 2500 ppm in [1] is 100%. Also, the mortality at 500 ppm in assay [2] is at least 50%. Also, the mortality at 300 ppm in assay [3] is at least 75%; in assay [6], at least 90%; in assay [7], at least 75%; in assay [9] it was at least 75%. The mortality at 100 ppm in assay [4] and in assay [8] was at least 75% in each case. In [5], the mortality at 2500 µg/mL is at least 90%.

A word on the mortality: it is the percentage killed.

The values above are taken from US8710056B2, “Pyridazine compounds for controlling invertebrate pests” (BASF SE, priority 2009, dated 2014).
